From publication PMC6440464 (PeerJ, 2019)
Like-named read-outs stand apart in the source and are kept apart here.

Tests used:
[1] = Pharmacokinetics study after separate oral administration in rats (HPLC-MS of plasma); format: in vivo, Sprague-Dawley rats; settings: for AUC(0-t) / MRT last / Tmax / CL/F / Cmax / half-life: po; for Tmax: read-out: Tmax (converted); for CL/F: read-out: CLz/F; for Cmax: read-out: Cmax; for half-life: read-out: t1/2z
Description: A total of 15 SPF Sprague-Dawley rats (SD, male, 190–210 g) were provided by Sino-British Sippr/BK Lab Animal Company Ltd. (Shanghai, China). The rats were kept in standard conditions (22–26 °C; 40–60% relative humidity; 12 h light/dark cycle). Throughout the rearing period, the animals had access to food and water ad libitum. Animal experiments were conducted in accordance with the standard ethical guidelines of the Laboratory Animal Management Committee of Jiangsu Province (SYXK (SU) 2016-0011).
Following 1 week of adaptation, the rats were fasted for about 12 h before dosing, with free access to water. […] After administration of the first dose, blood samples were taken from the retro-orbital vein at 0, 5, 15, 30, 60, 90, 120, 180, 240, 360, 480, and 1,440 min and collected in heparinized tubes. The samples were centrifuged at 3,500 rpm for 10 min at 4 °C and the plasma was stored at −80 °C until analysis.
An Agilent 1,200 series HPLC system (Agilent Technologies, Waldbronn, Germany) equipped with a quaternary pump on-line degasser, auto-sampler and column oven, and an SL G1946D quadruple mass spectrometer (Agilent Technologies, Santa Clara, CA, USA) equipped with an electrospray ionization (ESI) source, were used for separation and detection. Data were acquired and analyzed using Agilent ChemStation Software Version A.01.00 (Agilent Technologies, Santa Clara, CA, USA).
The separation was carried out with an Amethyst C18-H column (150 × 4.6 mm, 5 μm, Sepax Technologies, Newark, DE, USA) with a guard column SB-C18 (10 × 4.6 mm, 5 μm, Phenomenex Technologies, Torrance, USA) at a constant temperature of 25 °C.
The mass spectra were acquired using ESI interfaced to a single quadrupole mass spectrometer. The ionization conditions were as follows: drying gas (N2) flow rate of 11 L/min, drying gas temperature of 350 °C, nebulizing gas (N2) pressure of 35 psi, capillary voltage of 3,500 V, quad temperature of 100 °C, and fragment voltage of 110 V. A series of m/z were monitored using a timed program according to the retention times and characteristic ions for the corresponding HPLC-MS peak obtained by scanning from m/z 100–1,000 in the standard sample.
Briefly, an aliquot of plasma sample (100 μL) was spiked with 5% formic acid (10 μL) in centrifuge tube. Subsequently, hydrochloric acid (2 mol/L, 10 μL) and IS solution (960.00 ng/mL, 20 μL) were added. Then ethyl acetate/n-butyl alcohol (1:1 v/v; 1,000 μL) was used to extract the components. The samples were then homogenized by vortex mixing and centrifuged for 10 min at 14,000 rpm. After centrifugation, 800 μL of supernatant was transferred to another centrifuge tube and the sample was evaporated to dryness. The residues were dissolved in 100 μL of methanol and centrifuged for 10 min at 12,000 rpm. 50 μL of the supernatant was transferred to the vial and an aliquot of 5 μL was injected into the HPLC-MS system for analysis.
DAS 2.0 (Chinese Pharmacological Association, Shanghai, China) was used to calculate the pharmacokinetic parameters using the non-compartment model, including the area under curve (AUC), mean residence time (MRT), half-life ( t1/2z), clearance rate (CL), maximum plasma concentration (Cmax), and time (Tmax). All results are expressed as mean ± standard deviation (SD). One way analysis of variance followed by […] was used for comparison of different groups using Graph pad prism 5 software. A p-value of <0.05 was considered statistically significant.

[2] = test system: lipid peroxidation; design: method as in Shirai et al., 2001; settings: 10 mM; ref Shirai et al., 2001; cited from earlier work
[3] = male, Sprague-Dawley, rat, plasma, 50 mg/kg, IQ group (oral IQ 50 mg/kg), rat plasma, labelled substance = analyte, mean of 5 rats
[4] = male, Sprague-Dawley, rat, plasma, 50 mg/kg, IQ group: oral IQ 50 mg/kg, rat plasma, mean ± SD, n = 5
[5] = male, Sprague-Dawley, rat, plasma, 50 mg/kg, QG group (oral QG 50 mg/kg), rat plasma, labelled substance = analyte, mean of 5 rats
[6] = male, Sprague-Dawley, rat, plasma, 50 mg/kg, QG group: oral QG 50 mg/kg, rat plasma, mean ± SD, n = 5
[7] = male, Sprague-Dawley, rat, plasma, 50 mg/kg, Qr group (oral Qr 50 mg/kg), rat plasma, labelled substance = analyte, mean of 5 rats
[8] = male, Sprague-Dawley, rat, plasma, 50 mg/kg, Qr group: oral Qr 50 mg/kg, rat plasma, mean ± SD, n = 5

O=C(O)[C@H]1O[C@@H](Oc2c(-c3ccc(O)c(O)c3)oc3cc(O)cc(O)c3c2=O)[C@H](O)[C@@H](O)[C@@H]1O [QG, Quercetin-3-O-β-D-glucuronide]
AUC0−t ([1]; Qr group: oral Qr 50 mg/kg, rat plasma, mean ± SD, n = 5): 1,150.0 ± 454.2 mg/L*min
Shape of mean plasma concentration-time profile ([1]; after oral administration of QG 50 mg/kg): clear double peak phenomenon
concentration at 120 min ([1]; male, Sprague-Dawley, rat, plasma, oral, 50 mg/kg, IQ group (oral IQ 50 mg/kg), 120 min, individual rats NO. 1-5, read-out: Plasma concentrations): 872 ng/mL
AUC(0-t) ([1]; male, Sprague-Dawley, rat, plasma, 50 mg/kg, IQ group (oral IQ 50 mg/kg), rat plasma, labelled substance = analyte, individual rats No1-No5, read-out: AUC(0-t) (converted)): 8820 ng·h/mL
MRT last ([1]; male, Sprague-Dawley, rat, plasma, 50 mg/kg, IQ group (oral IQ 50 mg/kg), rat plasma, labelled substance = analyte, individual rats No1-No5, read-out: MRT(0-t) (converted)): 4.63 h
Tmax ([1]; male, Sprague-Dawley, rat, plasma, 50 mg/kg, IQ group (oral IQ 50 mg/kg), rat plasma, labelled substance = analyte, individual rats No1-No5): 0.5 h
AUC(0-t) ([1]; male, Sprague-Dawley, rat, plasma, 50 mg/kg, IQ group (oral IQ 50 mg/kg), rat plasma, labelled substance = analyte, mean of 5 rats, read-out: AUC(0-t) (converted)): 11200 ng·h/mL
CL/F [1, 3]: 70 mL/min/kg
Cmax [1, 3]: 3900 ng/mL
MRT last ([1]; male, Sprague-Dawley, rat, plasma, 50 mg/kg, IQ group (oral IQ 50 mg/kg), rat plasma, labelled substance = analyte, mean of 5 rats, read-out: MRT(0-t) (converted)): 5.93 h
Tmax [1, 3]: 0.5 h
half-life [1, 3]: 8.73 h
AUC(0-t) ([1]; male, Sprague-Dawley, rat, plasma, 50 mg/kg, IQ group: oral IQ 50 mg/kg, rat plasma, mean ± SD, n = 5, read-out: AUC0−t (converted)): 11200 ng·h/mL
Cmax [1, 4]: 3910 ± 1340 ng/mL
MRT last ([1]; male, Sprague-Dawley, rat, plasma, 50 mg/kg, IQ group: oral IQ 50 mg/kg, rat plasma, mean ± SD, n = 5, read-out: MRT0−t (converted)): 5.93 h
Tmax [1, 4]: 0.5 h
half-life [1, 4]: 8.72 ± 3.17 h
MRT last ([1]; male, Sprague-Dawley, rat, plasma, 50 mg/kg, QG group (oral QG 50 mg/kg), rat plasma, labelled substance = analyte, individual rats No1-No5, read-out: MRT(0-t) (converted)): 6.52 h
half-life ([1]; male, Sprague-Dawley, rat, plasma, 50 mg/kg, QG group (oral QG 50 mg/kg), rat plasma, labelled substance = analyte, individual rats No1-No5): 4.98 h
AUC(0-t) ([1]; male, Sprague-Dawley, rat, plasma, 50 mg/kg, QG group (oral QG 50 mg/kg), rat plasma, labelled substance = analyte, mean of 5 rats, read-out: AUC(0-t) (converted)): 16000 ng·h/mL
CL/F [1, 5]: 71 mL/min/kg
Cmax [1, 5]: 2040 ng/mL
MRT last ([1]; male, Sprague-Dawley, rat, plasma, 50 mg/kg, QG group (oral QG 50 mg/kg), rat plasma, labelled substance = analyte, mean of 5 rats, read-out: MRT(0-t) (converted)): 7.3 h
Tmax [1, 5]: 3.7 h
half-life [1, 5]: 6.27 h
AUC(0-t) ([1]; male, Sprague-Dawley, rat, plasma, 50 mg/kg, QG group: oral QG 50 mg/kg, rat plasma, mean ± SD, n = 5, read-out: AUC0−t (converted)): 16000 ng·h/mL
Cmax [1, 6]: 2040 ± 850 ng/mL
MRT last ([1]; male, Sprague-Dawley, rat, plasma, 50 mg/kg, QG group: oral QG 50 mg/kg, rat plasma, mean ± SD, n = 5, read-out: MRT0−t (converted)): 7.3 h
Tmax [1, 6]: 3.7 h
half-life [1, 6]: 6.27 ± 1.59 h
Tmax ([1]; male, Sprague-Dawley, rat, plasma, 50 mg/kg, Qr group (oral Qr 50 mg/kg), rat plasma, labelled substance = analyte, individual rats No1-No5): 0.5 h
AUC(0-t) ([1]; male, Sprague-Dawley, rat, plasma, 50 mg/kg, Qr group (oral Qr 50 mg/kg), rat plasma, labelled substance = analyte, mean of 5 rats, read-out: AUC(0-t) (converted)): 19200 ng·h/mL
CL/F [1, 7]: 43 mL/min/kg
Cmax [1, 7]: 6460 ng/mL
MRT last ([1]; male, Sprague-Dawley, rat, plasma, 50 mg/kg, Qr group (oral Qr 50 mg/kg), rat plasma, labelled substance = analyte, mean of 5 rats, read-out: MRT(0-t) (converted)): 5.27 h
Tmax [1, 7]: 0.7 h
half-life [1, 7]: 9.1 h
AUC(0-t) ([1]; male, Sprague-Dawley, rat, plasma, 50 mg/kg, Qr group: oral Qr 50 mg/kg, rat plasma, mean ± SD, n = 5, read-out: AUC0−t (converted)): 25800 ng·h/mL
Cmax [1, 8]: 6460 ± 2940 ng/mL
MRT last ([1]; male, Sprague-Dawley, rat, plasma, 50 mg/kg, Qr group: oral Qr 50 mg/kg, rat plasma, mean ± SD, n = 5, read-out: MRT0−t (converted)): 5.26 h
Tmax [1, 8]: 0.7 h
half-life [1, 8]: 9.1 ± 7.28 h
Inhibition of lipid peroxidation [2]: can inhibit lipid peroxidation
